From article PMC10419174, “WR1065 conjugated to thiol-PEG polymers as novel anticancer prodrugs: broad spectrum efficacy, synergism, and drug resistance reversal” (Frontiers in Oncology, 2023)
Where two headings read alike, the source gives them in different places. Marks after values point to notes of the source that are not given here.

Experiments:
[1] = system: Lung A549 cells; parameters: method as in PMID 29258181, PMID 12507923, PMID 35770045, PMID 31488557; settings: cited from earlier work
[2] = system: Lung NCI-H460 cells; parameters: method as in PMID 29258181, PMID 12507923, PMID 35770045, PMID 31488557; settings: cited from earlier work
[3] = system: Lung NCI-H1975 cells; parameters: method as in PMID 29258181, PMID 12507923, PMID 35770045, PMID 31488557; settings: cited from earlier work
[4] = system: Acute promyelocytic HL60 leukemia cells; parameters: method as in PMID 29258181, PMID 12507923, PMID 35770045, PMID 31488557; settings: cited from earlier work
[5] = system: Ovary SKOV3 cells; parameters: method as in PMID 29258181, PMID 12507923, PMID 35770045, PMID 31488557; settings: cited from earlier work
[6] = system: Mammary gland HCC38 cells; experiment: CyQUANT-NF proliferation assay, 48-h drug treatment; type: cell-based; settings: 48-h treatment, amifostine ND = not definable up to 500 µM
[7] = system: Mammary gland MDA-MB-231 cells; experiment: as above; type: cell-based; settings: Homo sapiens, MDA-MB-231; 48-h treatment; amifostine ND = not definable up to 500 µM
Experimental: Since the BRG prodrugs are composed of WR1065 as one of the major constituents, assays were conducted to determine if factors reported to modulate the activity of amino acid and polyamine plasma membrane transport systems impacted the efficacy of 4SP65 or 1LP65 in selected cancer cell lines. HL60 cells were exposed to 4SP65 with up to 0.5 mM NaCl, MBA-MD-231 cells were tested in the presence and absence of medium supplemented with estradiol plus insulin (in the BulletKit™ for growth supplements for NHMECs), HCC38 cells were exposed to 4SP65 with and without 10 µM insulin added to the growth medium, and multiple cells lines were pretreated for 24 h with 1 mM DFMO prior to starting exposures to 4SP65.
(§1) The percentage of growth inhibition was calculated as follows: […]

[8] = system: A549 NSCLC cells; experiment: cells
Experimental: as §1

[9] = system: Malignant pleural mesothelioma PPMMill cells; experiment: cells; settings: 48 h
Experimental: as §1

[10] = system: NCI-H1975 NSCLC cells; experiment: cells; settings: Homo sapiens, NCI-H1975, 48 h
Experimental: as §1

[11] = system: Ovary SKOV3 cells; experiment: cells
Experimental: as §1

[12] = system: Ovary TOV21G cells; experiment: cells
Experimental: as §1

[13] = system: Pancreas PANC-1 cells; experiment: cells; settings: Homo sapiens, PANC-1, 48 h
Experimental: as §1

[14] = system: Prostate DU145 cells; experiment: cells; settings: Homo sapiens, DU-145, 48 h
Experimental: as §1

[15] = system: Prostate LNCaP cells; experiment: cells; settings: Homo sapiens, LNCaP, 48 h
Experimental: as §1

[16] = system: Prostate PC3 cells; experiment: cells
Experimental: as §1

[17] = system: human cancer cell lines; experiment: cells; settings: for cytolytic effects: exposure levels up to 500 µM, 48 h; for GI50: Homo sapiens
Experimental: as §1

[18] = system: human Hec50co (p53-null) endometrial tumor xenografts; settings: single agent; cited from earlier work
[19] = system: Malignant pleural mesothelioma HMESO1 cells; settings: drug alone, 48 h, 4SP65/cisplatin study
Experimental: as §1

[20] = system: NCI-H460 NSCLC cells; settings: drug alone, 48 h, 4SP65/cisplatin study
From the text: To test anticancer effectiveness of individual drugs or drug combinations, the CyQUANT®-NF proliferation assay was used with a plate reader (i) to generate standard curves for cell numbers for each cell line, (ii) to measure the starting cell numbers at initiation of drug treatment, and (iii) to obtain fluorescence readings from cells in 96-well plates for comparisons to a standard curve for the relevant cancer cell line and quantifying cell viability after drug treatments. […] Trypan blue exclusion was used to estimate cell numbers in a few pilot experiments and thereafter was applied to confirm very low viable cell numbers and cell death.
A series of experiments was conducted to determine the relative efficacy of 4SP65, 1LP65, and amifostine as single agents in the same human cancer cell lines.
Five metrics were calculated and used to characterize the shape of the dose-response curve following exposure to a single test agent. Using cell numbers based on fluorescence measurements and standard curves, the percentage growth was calculated at each drug concentration level. The percentage of growth inhibition was calculated as follows:
where Tz = cell numbers or fluorescence counts at time xero, C = vehicle-exposed control cell numbers at the end of the assessment time period, and Ti = test agent-exposed cell numbers or fluorescence counts at each drug concentration. […] The LC50/99 was calculated using Equation 2 = -50 and Eq. 2 = -99, respectively. […] For NHMECs, the relationships between drug exposure levels and fluorescence units were used to define dose-response metrics. The selectivity index values for individual drugs were calculated using IC50 levels in NHMECs divided by the IC50 value for each cancer cell line. Statistical comparisons of differences in individual dose-response metrics between drug treatments and cell lines were conducted using Student’s t-test, with P-values <0.05 considered significant.
Relative cell growth inhibition values for differing levels of each drug alone and in combination were input into SynergyFinder to generate dose-response curves for each drug alone and to produce a dose-response matrix. The dose-response matrix data then were used in generating a two-dimension heatmap and three-dimension volcano plot to visualize the distribution of areas of differing degrees of synergism and to calculate average and maximum synergy scores in selected human cancer cell lines. The expected drug combination responses were calculated using both the Highest Single Agent (HSA) model and the Zero interaction potency (ZIP) model.

[21] = system: Prostate DU145 cells; parameters: method as in NCI Database of Screening Results; settings: ref NCI Database of Screening Results; cited from earlier work
[22] = system: Lung A549 cells; settings: cited from earlier work; for GI50 / TGI: ref NCI Database of Screening Results
[23] = system: Lung NCI-H460 cells; settings: cited from earlier work; for GI50 / TGI: ref NCI Database of Screening Results
[24] = system: Mammary gland MDA-MB-231 cells; settings: cited from earlier work; for GI50: ref NCI Database of Screening Results
[25] = system: Prostate PC3 cells; settings: cited from earlier work
[26] = system: Ovary SKOV3 cells; settings: cited from earlier work; for GI50 / TGI: ref NCI Database of Screening Results
[27] = cited from earlier work
[28] = system: Mammary gland MDA-MB-231 cells; parameters: method as in PMID 29258181, PMID 12507923, PMID 35770045, PMID 31488557; settings: cited from earlier work
[29] = system: Pancreas PANC-1 cells; parameters: method as in PMID 29258181, PMID 12507923, PMID 35770045, PMID 31488557; settings: cited from earlier work
[30] = system: Acute promyelocytic HL60 leukemia cells; settings: cited from earlier work
[31] = system: temperature-dependent p53 mutants; parameters: method as in PMID 11429700, PMID 11870884, PMID 22710932, PMID 17724467; settings: 11 temperature-dependent mutants analyzed; cited from earlier work
[32] = ND = not definable, highest concentration in parentheses
[33] = drug alone, 48 h, 4SP65/cisplatin study
[34] = drug alone, 4SP65/cisplatin study
[35] = drug alone, 4SP65/cisplatin study, ND = not definable, highest concentration in parentheses
[36] = drug alone, 48 h, 4SP65/cisplatin study, ND = not definable, highest concentration in parentheses
[37] = ref NCI Database of Screening Results

SMILES: COCC1(CO)C(=O)C2CCN1CC2 (stereo not drawn) [APR-246]
- IC50 [1]: 29 µM
- IC50 [2]: 225 µM
- IC50 [3]: 9.6 µM
- IC50 [4]: ~20 µM
- IC50 [5]: 16.7 µM

SMILES: NCCCNCCSP(=O)(O)O [Amifostine, amifostine, reference compound]
- TGI [6]: 254 ± 123 µM
- GI50 ([6]; Homo sapiens, HCC38): 78.1 ± 35.7 µM
- IC50 ([6]; Homo sapiens, HCC38): 276 ± 92 µM
- GI50 [7]: 241 ± 130 µM
- GI50 ([8]; Homo sapiens, A549, 48 h): 241 ± 130 µM
- IC50 ([8]; Homo sapiens, A549, 48 h): 261 ± 120 µM
- GI50 ([9]; Homo sapiens): 378 ± 122 µM
- GI50 [10]: 130 ± 26 µM
- GI50 ([11]; Homo sapiens, SK-OV-3, 48 h): 81 ± 13 µM
- IC50 ([11]; Homo sapiens, SK-OV-3, 48 h): 294 ± 119 µM
- GI50 ([12]; Homo sapiens, TOV21G, 48 h): 47 ± 10 µM
- IC50 ([12]; Homo sapiens, TOV21G, 48 h): 57 ± 9 µM
- GI50 [13]: 113 ± 39 µM
- GI50 [14]: 126 ± 28 µM
- IC50 [14]: 319 ± 105 µM
- GI50 [15]: 150 ± 47 µM
- IC50 [15]: 378 ± 122 µM
- TGI ([16]; 48-h treatment, amifostine ND = not definable up to 500 µM): 301 ± 115 µM
- GI50 ([16]; Homo sapiens, PC-3, 48 h): 53 ± 10 µM
- IC50 ([16]; Homo sapiens, PC-3, 48 h): 103 ± 15 µM
- LC50 [17]: Not definable ^k
- cancer cell lines with limited cytostatic effects ([17]; 14 cell lines): 11/14
- cytolytic effects ([17]; 14 cell lines): no cytolytic effects
- cytolytic effects ([17]; 14 cell lines, listed as amifostine): not found in any cell line
- LC99 ([17]; 14 cell lines, highest concentration 500 µM): Not definable ^k
- GI50 ([17]; read-out: GI50 average, GI50 values >100 µM in 7/14 cell lines): 149 µM
- GI50 ([17]; read-out: GI50 range, GI50 values <100 µM in 4/14 cell lines: HCC38, PC3, SKOV3, TOV21G): 47 to 81 µM
- GI50 ([17]; read-out: GI50 range, seven of 14 cell lines): 113 to 378 µM
- GI50 ([17]; read-out: average GI50, four cell lines where amifostine GI50 <100 µM): 64.8 µM
- TGI average ([17]; only two cell lines, HCC38 and PC3): 278 ± 24 ^j µM
- inhibition of tumor xenograft growth compared to tumor size at start of treatment [18]: ~ 50%

SMILES: N.N.[Cl][Pt][Cl] [Cisplatin, cisplatin, reference compound]
- GI50 [19]: 3 ± 0.4 µM
- IC50 [19]: 8.6 ± 1.1 µM
- TGI [19]: 6.7 ± 0.7 µM
- LC99 [19, 32]: ND (>15) µM
- gains of cytostatic and cytolytic activities, range ([8]; 4SP65-cisplatin combined): 1.7- to 3.5 fold
- LC99, drug in combination (CMB) ([8]; amount of each drug in combination, ratio 50% 4SP65:50% DDP, 48 h): 7 µM
- GI50 [8, 33]: 3.5 ± 0.7 µM
- IC50 [8, 33]: 4.7 ± 0.8 µM
- LC99 [8, 33]: 24.4 ± 2.6 µM
- TGI [8, 33]: 8.2 ± 1.0 µM
- GI50 [9, 34]: 27.2 ± 3.4 µM
- IC50 [9, 34]: 40.5 ± 8.1 µM
- LC99 [9, 35]: ND (>100) µM
- TGI [9, 35]: ND (>100) µM
- GI50 [11, 33]: 5.3 ± 0.4 µM
- IC50 [11, 33]: 6.7 ± 0.6 µM
- LC99 [11, 36]: ND (>21) µM
- TGI [11, 36]: ND (>21) µM
- gains in total growth inhibition and cytolytic effects, range ([12]; 4SP65-cisplatin combined): 1.3- to 2.9 fold
- LC99, drug in combination (CMB) ([12]; amount of each drug in combination, ratio 14% 4SP65:86% DDP, 48 h): 5.9 µM
- GI50 [12, 33]: 2.2 ± 0.4 µM
- IC50 [12, 33]: 3 ± 0.3 µM
- LC99 [12, 33]: 17.2 µM
- TGI [12, 33]: 6.7 ± 0.3 µM
- LC99 ([12]; drug alone, 48 h, 4SP65/cisplatin study, listed as DDP): 17.2 ± 5.2 µM
- gains of cytostatic and cytolytic activities, range ([17]; 4SP65-cisplatin combined, H460, HMESO1, PPMMill, SKOV3): 1.7- to 6.9 fold
- GI50 [20]: 3.1 ± 0.1 µM
- IC50 [20]: 4 ± 0.1 µM
- LC99 [20, 32]: ND (>15) µM
- TGI [20, 32]: ND (>15) µM
- GI50 [21]: 2 µM
- GI50 [22]: 3.8 µM
- TGI [22]: >100 µM
- GI50 [23]: 0.6 µM
- TGI [23]: >100 µM
- GI50 [24]: 22.4 µM
- GI50 [25, 37]: 5 µM
- GI50 [26]: 2.5 µM
- TGI [26]: >100 µM

SMILES: COc1cc2ncnc(Nc3ccc(F)c(Cl)c3)c2cc1OCCCN1CCOCC1 [GEF, gefitinib, reference compound]
- trough levels ([27]; 250 mg daily, after 3 days of treatment): 0.257−4.50 µM
- trough levels ([27]; 250 mg daily, after 8 days of treatment): 0.282−6.55 µM
- Cmax ([27]; 250 mg daily, printed 'or more', read-out: Cmax plasma concentrations): 500 to 1000 nM
- elimination half-life [27]: 48 h

SMILES: O=C1C2CCN(CC2)C1(CO)CO [PRIMA-1]
- GI50 [1]: 63 µM
- GI50 [2]: 40 µM
- IC50 [28]: 141 µM
- GI50 [5]: 63 µM
- IC50 [29]: 66 µM

SMILES: CC(=O)O[C@H]1C(=O)[C@@]2(C)[C@H]([C@H](OC(=O)c3ccccc3)[C@]3(O)C[C@H](OC(=O)[C@H](O)[C@@H](NC(=O)c4ccccc4)c4ccccc4)C(C)=C1C3(C)C)[C@]1(OC(C)=O)CO[C@@H]1C[C@@H]2O [Paclitaxel, paclitaxel]
- GI50 [21]: 1.9 µM
- TGI [21]: >100 µM
- inhibition of tumor xenograft growth compared to tumor size at start of treatment [18]: ~ 50%
- CC50 [22]: > 100 µM
- GI50 [22]: 9.2 µM
- TGI [22]: >100 µM
- CC50 [23]: > 100 µM
- GI50 [23]: 5.8 µM
- TGI [23]: 90.4 µM
- CC50 [30]: > 100 µM
- GI50 [30, 37]: 25.8 µM
- TGI [30, 37]: >100 µM
- CC50 [24]: > 100 µM
- GI50 [24]: 6.4 µM
- CC50 [25]: > 100 µM
- GI50 [25, 37]: 36.4 µM
- TGI [25, 37]: >100 µM
- CC50 [26]: > 100 µM
- GI50 [26]: 0.52 µM
- TGI [26]: 5.2 µM

SMILES: NCCCNCCS [WR1065, 2-[(3-aminopropyl)amino]ethanethiol]
- p53 mutants reactivated to some degree [31]: 8/11
